According to EP0855398B1, “SESQUITERPENE DERIVATIVES HAVING ANTIVIRAL ACTIVITY” (SHIONOGI & CO., LTD., priority 1995, dated 1997):
≈ marks a conversion by molar mass, not a printed value.

Experiments:
[1] = in vitro; details: bovine; for CC50 at 72 h: mdbk cells
[2] = tested on: Influenza virus A/WSN/33 (H1N1); assay: microbe, parasite or virus in culture; format: cell-based; details: 72 h; viral strain: Influenza virus A/WSN/33 (H1N1); Cell: MDBK; […]; 3 days; read-out: IC50

| SMILES | CC50 [1] [mg/L] | IC50 [2] [mg/L] | CC50 at 72 h [1] [mg/L] |
| --- | --- | --- | --- |
| C[C@H]1CC[C@H]2C(C)(C)[C@H](OS(=O)(=O)c3ccccc3)CC[C@]23Oc2c(c(O)cc4c2CNC4=O)C[C@]13C [Compound (13d), (6a R, 7 S, 9a S, 11 R, 13a S)-2,3,6,6a, 7,8,9,9a, 10, 11, 12, 13-dodecahydro-5-hydroxy-6a, 7, 10, 10-tetramethyl-3-oxo-11-phenylsulfonyloxy-1H-benzo[8,8a][1]benzopyrano[2,3-e]isoindole] | 10 (≈ 19 µM) | 0.02 to 0.06 (≈ 0.038 to 0.114 µM) | – |
| C[C@H]1CC[C@H]2C(C)(C)[C@@H](N)CC[C@]23Oc2c(c(O)cc4c2CNC4=O)C[C@]13C [Compound (47a), (6aR, 7S, 9aS, 11S, 13aS)-11-amino-2,3,6,6a, 7,8,9,9a, 10, 11, 12, 13-dodecahydro-5-hydroxy-6a, 7, 10, 10-tetramethyl-3-oxo-1H-benzo[8,8a][1]benzopyrano[2,3-e]isoindole] | > 10 | 0.02 (≈ 0.052 µM) | – |
| C[C@H]1CC[C@H]2C(C)(C)[C@@H](O)[C@@H](OC(=O)c3ccccc3)C[C@]23Oc2c(c(O)cc4c2CNC4=O)C[C@]13C [Compound (50c), (6a R, 7 S, 9a S, 11 R, 12 S, 13a S)-12-benzoyloxy-2,3,6,6a, 7,8,9,9a, 10, 11, 12, 13-dodecahydro-5,11-dihydroxy-6a, 7, 10, 10-tetramethyl-3-oxo-1H-benzo[8,8a][1]benzopyrano[2,3-e]isoindole] | 5 to 10 (≈ 9.89 to 19.8 µM) | 0.05 (≈ 0.0989 µM) | – |
| C[C@H]1CC[C@H]2C(C)(C)[C@H]3O[C@H]3C[C@]23Oc2c(c(O)cc4c2CNC4=O)C[C@]13C [Compound (43a), (6a R, 7 S, 9a S, 11 R, 12 S, 13a S)-11,12-epoxy-2,3,6,6a, 7,8,9,9a, 10, 11, 12, 13-dodecahydro-5-hydroxy-6a, 7, 10, 10-tetramethyl-3-oxo-1H-benzo[8,8a][1]benzopyrano[2,3-e]isoindole] | 40 (≈ 104 µM) | 0.001 to 0.002 (≈ 0.00261 to 0.00522 µM) | – |
| C[C@H]1CC[C@H]2C(C)(C)CCC[C@]23Oc2c(c(O)cc4c2CNC4=O)C[C@]13C [Compound (42), (6a R, 7 S, 9a S, 13a S)-2,3,6,6a, 7,8,9,9a, 10, 11, 12, 13-dodecahydro-5-hydroxy-6a, 7, 10, 10-tetramethyl-3-oxo-1H-benzo [8,8a] [1] benzopyrano[2,3-e]isoindole] | 5 (≈ 13.5 µM) | 0.002 (≈ 0.00541 µM) | – |
| C[C@H]1CC[C@H]2C(C)(C)[C@H](O)CC[C@]23Oc2c(c(O)cc4c2C(=O)NC4=O)C[C@]13C [Compound (70), (6aR, 7S, 9aS, 11R, 13aS)-2,3,6,6a, 7,8,9,9a, 10, 11, 12, 13-dodecahydro-5, 11-dihydroxy-6a, 7, 10, 10-tetramethyl-13-dioxo-1H-benzo[8,8a][1]benzopyrano[2,3-e]isoindole] | – | 0.008 (≈ 0.02 µM) | 12.5 to 25 (≈ 31.3 to 62.6 µM) |
| C[C@H]1CC[C@H]2C(C)(C)[C@@H](NS(=O)(=O)c3ccccc3)CC[C@]23Oc2c(c(O)cc4c2CNC4=O)C[C@]13C [Compound (47d), (6aR, 7S, 9aS, 11S, 13aS)-2,3,6,6a, 7,8,9,9a, 10, 11, 12, 13-dodecahydro-5-hydroxy-6a, 7, 10, 10-tetramethyl-11-phenylsulfonylamino-3-oxo-1H-benzo[8,8a][1]benzopyrano[2,3-e]isoindole] | 5 to 10 (≈ 9.53 to 19.1 µM) | 0.003 (≈ 0.00572 µM) | – |
| C[C@H]1CC[C@H]2C(C)(C)[C@@H](O)CC[C@]23Oc2c(c(O)cc4c2CN(S(C)(=O)=O)C4=O)C[C@]13C [Compound (28e), (6aR, 7S, 9aS, 11S, 13aS)-2,3,6,6a, 7,8,9,9a, 10, 11, 12, 13-dodecahydro-5, 11-dihydroxy-6a, 7, 10, 10-tetramethyl-2-methanesulfonyl-3-oxo-1H-benzo[8,8a][1]benzopyrano[2,3-e]isoindole] | > 10 | 0.03 (≈ 0.0647 µM) | – |
| C[C@H]1CC[C@H]2C(C)(C)C(=NO)CC[C@]23Oc2c(c(O)cc4c2CNC4=O)C[C@]13C [Compound (51a), (6a R, 7 S, 9a S, 13a S)-2,3,6,6a, 7,8,9,9a, 10, 11, 12, 13-dodecahydro-5-hydroxy-11-hydroxyimino-6a, 7, 10, 10-tetramethyl-3-oxo-1H-benzo[8,8a][1]benzopyrano[2,3-e]isoindole] | > 10 | 0.0016 (≈ 0.00402 µM) | – |
| CC(=O)O[C@H]1C[C@@]23Oc4c(c(O)cc5c4CNC5=O)C[C@]2(C)[C@@H](C)CC[C@H]3C(C)(C)[C@H]1O [Compound (50b), (6a R, 7 S, 9a S, 11 R, 12 S, 13a S)-12-acetoxy-2,3,6,6a,7,8,9,9a, 10, 11, 12, 13-dodecahydro-5,11-dihydroxy-6a, 7, 10, 10-tetramethyl-3-oxo-1H-benzo[8,8a][1]benzopyrano[2,3-e]isoindole] | > 10 | 0.01 (≈ 0.0225 µM) | – |
| C[C@H]1CC[C@H]2C(C)(C)[C@@H](O)CC[C@]23Oc2c(c(O)cc4c2C(=O)N(C)C4=O)C[C@]13C [Compound (32b), (6aR, 7S, 9aS, 11S, 13aS)-2,3,6,6a, 7,8,9,9a, 10, 11, 12, 13-dodecahydro-5, 11-dihydroxy-2,6a, 7, 10, 10-pentamethyl-13-dioxo-1H-benzo[8,8a][1]benzopyrano[2,3-e]isoindole] | – | 0.04 (≈ 0.0967 µM) | 10 (≈ 24.2 µM) |
| C[C@H]1NC(=O)c2cc(O)c3c(c21)O[C@@]12CC[C@H](O)C(C)(C)[C@@H]1CC[C@H](C)[C@@]2(C)C3 [Compound (67b), (1R, 6aR, 7S, 9aS, 11S, 13aS)-2,3,6,6a, 7,8,9,9a, 10, 11, 12, 13-dodecahydro-5, 11-dihydroxy-1,6a, 7, 10, 10-pentamethyl-3-oxo-1H-benzo[8,8a][1]benzopyrano[2,3-e]isoindole] | 25 to 50 (≈ 62.6 to 125 µM) | 0.032 (≈ 0.0801 µM) | – |
| COC1NC(=O)c2cc(O)c3c(c21)O[C@@]12CC[C@H](O)C(C)(C)[C@@H]1CC[C@H](C)[C@@]2(C)C3 (stereo partly drawn) [Compound (30b), (6aR, 7S, 9aS, 11S, 13aS)-2,3,6,6a, 7,8,9,9a, 10, 11, 12, 13-dodecahydro-5, 11-dihydroxy-1-methoxy-6a, 7, 10, 10-tetramethyl-3-oxo-1H-benzo[8,8a][1]benzopyrano[2,3-e]isoindole] | 20 (≈ 48.1 µM) | 0.04 (≈ 0.0963 µM) | – |
| CCCCN1C(=O)c2cc(O)c3c(c2C1=O)O[C@@]12CC[C@H](O)C(C)(C)[C@@H]1CC[C@H](C)[C@@]2(C)C3 [Compound (32c), (6aR, 7S, 9aS, 11S, 13aS)-2-butyl-2,3,6,6a, 7,8,9,9a, 10, 11, 12, 13-dodecahydro-5, 11-dihydroxy-6a, 7, 10, 10-tetramethyl-13-dioxo-1H-benzo[8,8a][1]benzopyrano[2,3-e]isoindole] | – | 0.04 to 0.08 (≈ 0.0878 to 0.176 µM) | 5 (≈ 11 µM) |
| C[C@H]1CC[C@H]2C(C)(C)[C@@H](OC(=O)c3cnccn3)CC[C@]23Oc2c(c(O)cc4c2CNC4=O)C[C@]13C [Compound (35b), (6aR, 7S, 9aS, 11S, 13aS)-2,3,6,6a, 7,8,9,9a, 10, 11, 12, 13-dodecahydro-5-hydroxy-6a, 7, 10, 10-tetramethyl-3-oxo-11-[(2-pyrazyl)carbonyloxy]-1H-benzo[8,8a][1]benzopyrano[2,3-e]isoindole] | – | 0.002 to 0.004 (≈ 0.00407 to 0.00814 µM) | 10 (≈ 20.3 µM) |
| C[C@H]1CC[C@H]2C(C)(C)[C@@H](O)CC[C@]23Oc2c(c(O)cc4c2CNC4)C[C@]13C [Compound (34a), (6aR, 7S, 9aS, 11S, 13aS)-2,3,6,6a, 7,8,9,9a, 10, 11, 12, 13-dodecahydro-5, 11-dihydroxy-6a, 7,10,10-tetramethyl-1H-benzo[8,8a][1]benzopyrano[2,3-e]isoindole] | > 10 | 0.04 (≈ 0.108 µM) | – |
| C[C@H]1CC[C@H]2C(C)(C)[C@@H](O)[C@@H](OS(C)(=O)=O)C[C@]23Oc2c(c(O)cc4c2CNC4=O)C[C@]13C [Compound (50d), (6a R, 7 S, 9a S, 11 R, 12 S, 13a S)-2,3,6,6a, 7,8,9,9a, 10, 11,12,13-dodecahydro-5,11-dihydroxy-6a, 7,10, 10-tetramethyl-12-methanesulfonyloxy-3-oxo-1H-benzo[8,8a][1]benzopyrano[2,3-e]isoindole] | > 10 | 0.0016 (≈ 0.00334 µM) | – |
| C[C@H]1CC[C@H]2C(C)(C)[C@@H](NC(=O)Nc3ccccc3)CC[C@]23Oc2c(c(O)cc4c2CNC4=O)C[C@]13C [Compound (47e), (6aR, 7S, 9aS, 11S, 13aS)-2,3,6,6a, 7,8,9,9a, 10, 11, 12, 13-dodecahydro-5-hydroxy-6a, 7, 10, 10-tetramethyl-11-(3-phenylureido)-3-oxo-1H-benzo[8,8a][1]benzopyrano[2,3-e]isoindole] | > 10 | 0.025 (≈ 0.0496 µM) | – |
| C[C@H]1CC[C@H]2C(C)(C)C=CC[C@]23Oc2c(c(O)cc4c2CNC4=O)C[C@]13C [Compound (41a), (6a R, 7 S, 9a S, 13a S)-2,3,6,6a, 7,8,9,9a, 10, 13-decahydro-5-hydroxy-6a, 7, 10, 10-tetramethyl-3-oxo-1H-benzo[8,8a][1]benzopyrano[2,3-e]isoindole] | 5 (≈ 13.6 µM) | 0.002 (≈ 0.00544 µM) | – |
| C[C@H]1CC[C@H]2C(C)(C)[C@@H](O)CC[C@]23Oc2c(c(O)cc4c2CN(C)C4=O)C[C@]13C [Compound (28a), (6aR, 7S, 9aS, 11S, 13aS)-2,3,6,6a, 7,8,9,9a, 10, 11, 12, 13-dodecahydro-5, 11-dihydroxy-2,6a, 7, 10, 10-pentamethyl-3-oxo-1H-benzo[8,8a][1]benzopyrano[2,3-e]isoindole] | 10 to 20 (≈ 25 to 50.1 µM) | 0.02 (≈ 0.0501 µM) | – |
| C[C@H]1CC[C@H]2C(C)(C)[C@H](OS(C)(=O)=O)CC[C@]23Oc2c(c(O)cc4c2CNC4=O)C[C@]13C [Compound (13b), (6a R, 7 S, 9a S, 11 R, 13a S)-2,3,6,6a, 7,8,9,9a, 10, 11, 12, 13-dodecahydro-5-hydroxy-6a, 7, 10, 10-tetramethyl-11-methanesulfonyloxy-3-oxo-1H-benzo[8,8a][1]benzopyrano[2,3-e]isoindole] | 5 (≈ 10.8 µM) | 0.02 (≈ 0.0431 µM) | – |
| C[C@H]1CC[C@H]2C(C)(C)[C@@H](O)CC[C@]23Oc2c(c(O)cc4c2C(O)NC4=O)C[C@]13C (stereo partly drawn) [Compound (30a), (6aR, 7S, 9aS, 11S, 13aS)-2,3,6,6a, 7,8,9,9a, 10, 11, 12, 13-dodecahydro-1,5, 11-trihydroxy-6a, 7, 10, 10-tetramethyl-3-oxo-1H-benzo[8,8a][1]benzopyrano[2,3-e]isoindole] | > 40 | 0.002 (≈ 0.00498 µM) | – |
